Test results taken from US20230407373A1 (priority 2020, published 2023).

What was measured:
gRNA of HCoV-OC43 = format: binding
HCoV-OC43 gRNA and sgRNA = format: binding

SLTM: host protein, UniProt Q9NWH9
target (spectral count) (gRNA of HCoV-OC43; type g_36_m, HCoV-OC43-infected HCT-8 cells, 36 hpi, Probe I): 10 | background (spectral count) (gRNA of HCoV-OC43; type g_36_m, uninfected-probe control, 36 hpi, Probe I): 1 | target (spectral count, OC43 Probe I RNP capture) (gRNA of HCoV-OC43; type n_48_v: 48 hours post-infection, infected cells, OC43 Probe I, unweighted spectral count): 11 | background (spectral count, no-probe control) (gRNA of HCoV-OC43; type n_48_v: 48 hours post-infection, no-probe control on infected cells): 1 | target (unweighted spectral count, OC43 Probe II capture) (HCoV-OC43 gRNA and sgRNA; 36 hpi, type n_36_v, tested against no-probe control, FDR<10%): 6 | target (unweighted spectral count, OC43 Probe II) (HCoV-OC43 gRNA and sgRNA; type n_48_v, 48 hpi, OC43 Probe II capture on infected cells): 8 | background (unweighted spectral count, no-probe control) (HCoV-OC43 gRNA and sgRNA; type n_48_v, 48 hpi, no-probe control on infected cells): 1
